# According to patent US20040072258A1, “Isoprenoid-dependent ras anchorage (idra) proteins” (priority 2003, published 2004):
# Entries after “also recorded” stand apart in the source; their conditions may differ.
# Tests used:
# [1] = target: T1, membrane galectin-1 (Rattus norvegicus, UniProt P11762); assay: Membrane galectin-1 in intact EJ cells treated with FTS or GTS (Western blot); format: cell-based; details: for reduction in the amount of membrane galectin-1: intact EJ cells, without cross-linking, Western blot (FIG. 3)
# T1 construct: endogenous in cells; host or cells: EJ cells (H-Ras (12V)-transformed Rat-1 fibroblasts)
# From the text: FIG. 3 is a photograph of a Western blot of galectin-1 isolated from cells in the presence of a control, FTS and GTS.
# Yet another aspect of the present invention is directed to a method of determining efficacious dosages of a Ras antagonist that disrupts Ras-anchor protein binding. In general, the method entails contacting cells with the antagonist in vivo or in vitro, collecting the cells following the contacting, isolating cell membranes from the collected cells, measuring decrease in anchor protein concentration per unit of cell membrane protein, and correlating the decrease with dosage of the Ras antagonist. In a preferred embodiment, a method for measuring the biological action of FTS and its analogs in vivo and in vitro is based on the suppression of the immunoassayable galectin-1 in H-Ras-transformed tumors. The basis of this assay depends upon the dose dependent loss of galectin-1 from cell membranes by FTS. Under maximal stimulation of tumor cells with FTS, 90% of galectin-1 is lost from membrane. This allows for an excellent dose response. A variation of this assay uses drug induced suppression of the anchor proteins in normal human lymphocytes isolated from patients being treated with FTS in phase 1 clinical trials. A dose of FTS or any other Ras antagonist that maximally suppresses galectin-1 (or the respective anchor protein of the antagonist) should be a dose that produces effects on other biological endpoints in vivo. When such assay is in mice and humans, therapeutically efficacious doses of Ras antagonists for humans can be determined.
# (§1) In agreement with previous results [Kloog et al., 1999] FTS, but not GTS, reduced the amount of membrane Ras in the cells by 50-60% (data not shown). Similarly, FTS (but not GTS) induced a 90% reduction in the amount of membrane galectin-1 (FIG. 3). Thus, the magnitude of the FTS-induced galectin-1 decrease was much greater than that of Ras.
# [2] = target: T2, membrane Ras (Homo sapiens, UniProt P01112, G12V); assay: Membrane Ras in intact EJ cells treated with FTS or GTS; format: cell-based, rat; details: without cross-linking, data not shown
# T2 construct: expressed in transfected cells; host or cells: Rat-1 fibroblasts stably transformed with H-Ras (12V) (EJ cells)
# From the text: as §1
# [3] = target: T3, Ras-IDRA complex (34-43 kDa) (Rattus norvegicus, UniProt P11762); assay: Chemical cross-linking (DSS/DSP) of Ras-IDRA complexes in EJ cells and membranes, SDS-PAGE, Ras Ab immunoblot, purification; format: cell-based
# T3 construct: expressed in transfected cells; host or cells: EJ cells (Rat-1 transformed with H-Ras (12V)) and their membranes; galectin-1 is endogenous
# Procedure: FIG. 1 is a photograph of an electrophoretic gel illustrating use of Ras antibodies and chemical cross-linkers for identification of Ras IDRA complexes that are sensitive to the Ras inhibitor, FTS. Ras antibodies (Ab) identify Ras and Ras-IDRA complex in EJ cell membranes. Membranes corresponding to 10^6 control or FTS (50 μM)-treated EJ cells were incubated in 50 mM sodium bicarbonate buffer, pH 8.5, containing protease inhibitors and 2% DMSO (no cross-linker controls) or the indicated concentrations of the cross-linkers DSS or DSP. Samples of Triton X-100 extracts of the membranes were subjected to SDS-PAGE under non-reducing conditions followed by Western immunoblotting with Ras Ab. Open arrow corresponds to Ras (21 kDa) and closed arrow corresponds to the major Ras-putative IDRA band (34-43 kDa) detected in the blot under these conditions. This band is not detected in the blots of the non cross-linked samples or in the blots of the cross-linked samples of FTS-treated cells.
# We used chemical cross-linkers in an attempt to identify the rapidly dissociating complexes of Ras and Ras-interacting proteins. […] When membranes of control and FTS-treated cells were exposed to these cross-linkers solubilized and fractionated on SDS-containing gels, Ras-immunoreactive bands were clearly detected at 34-43 kDa, 50 kDa, and 70 kDa (FIG. 1). […]
# [4] = tested on: H-Ras-transformed Rat-I (EJ) fibroblasts; details: cited from earlier work
# [5] = tested on: Ras-transformed cells; details: Aharonson et al., 1998; cited from earlier work
# [6] = tested on: fibroblasts transformed by ErbB2; details: ErbB2 acting upstream of Ras; cited from earlier work
# [7] = tested on: cells transformed by v-Raf; details: v-Raf acts independently of Ras; cited from earlier work
# [8] = tested on: H-Ras; details: cited from earlier work
# [9] = tested on: Ras methylation; details: in vitro; cited from earlier work
# [10] = tested on: cells transformed with the farnesylated but unmethylated K-Ras 4B (12V) CVYL isoform; details: cited from earlier work
# [11] = tested on: K-Ras 4B (12V), N-Ras (13V) and N-Ras (61L); details: membranes of rodent fibroblasts and of human tumor cell lines; cited from earlier work
# [12] = tested on: prenylated Gβγ-subunits of heterotriimeric G-proteins; details: Rat-1 cell membranes; cited from earlier work
# [13] = tested on: myr-Ras; details: myr-Ras-transformed cells; cited from earlier work
# [14] = tested on: prenylated Rac-1 and Rho A; details: human melanoma cells; cited from earlier work
# [15] = target: H-Ras (Homo sapiens, UniProt P01112, G12V); details: intact cells in vitro; dislodging H-Ras from its anchorage domains; cited from earlier work
# T3 sequence (P11762 2-135 limits assumed, one chain of several): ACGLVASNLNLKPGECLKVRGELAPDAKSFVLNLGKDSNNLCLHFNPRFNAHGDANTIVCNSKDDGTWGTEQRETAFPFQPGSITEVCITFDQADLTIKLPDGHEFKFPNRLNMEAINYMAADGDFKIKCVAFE
# T1 sequence (P11762 whole entry): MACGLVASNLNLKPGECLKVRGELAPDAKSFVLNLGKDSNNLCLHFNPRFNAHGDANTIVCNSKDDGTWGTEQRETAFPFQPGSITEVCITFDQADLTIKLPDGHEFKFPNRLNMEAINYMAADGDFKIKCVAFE
compound,measurement,setting,value
"CC(C)=CCC/C(C)=C/CC/C(C)=C/CSc1ccccc1C(=O)O [FTS, S-trans, trans-farnesylthiosalicylic acid]",levels of endogenous galectin-1 in EJ cells,"[1]; EJ cells, in parallel with the decrease in Ras",decreased the levels
same,reduction in the amount of membrane galectin-1,[1],90%
same,reduction of the amount of membrane Ras in the cells,[2],50-60%
same,34-43 kDa Ras-putative IDRA cross-linked band,"[3]; FTS (50 μM)-treated EJ cells or membranes, DSS or DSP, Ras Ab blot (FIG. 1)",not detected; also recorded: not present
same,amount of galectin-1 purified from cross-linked complexes of treated EJ cells,"[3]; FTS-treated EJ cells, Western blot (FIG. 2)",reduces the amounts of anchor; also recorded: very low
same,growth inhibition,[4]; H-Ras-transformed Rat-I (EJ) fibroblasts,potent growth inhibitor
same,effective concentration range,[4]; affected specifically the membrane-bound H-Ras protein in these cells,5 to 50 µM
same,inhibition of growth of Ras-transformed cells,[5],inhibited growth
same,inhibition of growth of ErbB2-transformed fibroblasts,[6],inhibits the growth
same,inhibition of growth of v-Raf-transformed cells,[7],not the growth
same,inhibition of farnesylation of H-Ras,[8],did not inhibit
same,inhibition of Ras methylation,[9],inhibit
same,inhibition of growth of K-Ras 4B (12V) CVYL-transformed cells,[10],inhibits growth
same,"dislodging of K-Ras 4B (12V), N-Ras (13V) and N-Ras (61L) from membranes",[11],dislodges
same,dislodging of prenylated Gβγ-subunits from membranes,[12],did not dislodge
same,effect on myr-Ras,[13],no effect
same,reduction of the amounts of prenylated Rac-1 and Rho A,[14],did not reduce
same,total amount of cellular Ras,[15],reduced the total amount of cellular Ras
CC(C)=CCC/C(C)=C/CC/C(C)=C/CC/C(C)=C/CSc1ccccc1C(=O)O [GGTS],inhibition of growth of Ras-transformed cells,[5],inhibited growth
CC(C)=CCC/C(C)=C/CSc1ccccc1C(=O)O [GTS],reduction in the amount of membrane galectin-1,[1],no effect and not
same,reduction of the amount of membrane Ras in the cells,[2],not
same,inhibition of growth of Ras-transformed cells,[5],not
COC(=O)c1ccccc1SCC=C(C)CCC=C(C)CCC=C(C)C [carboxy methylester analogue],inhibition of growth of Ras-transformed cells,[5],not
